Laboratory results from article PMC6277767, “Broad and Region-Specific Impacts of the Synthetic Cannabinoid CP 55,940 in Adolescent and Adult Female Mouse Brains” (Frontiers in Molecular Neuroscience, 2018).

Test system: CD1 female mouse brain lipidome
Experiment: Brain-region lipid levels (HPLC/MS/MS lipidomics) 2 h after single i.p. 3 mg/kg CP 55,940 vs vehicle
Type: in vivo
Details: thalamus
Method: The Bloomington Institutional Animal Care and Use Committee of Indiana University reviewed and approved the animal procedures. Female mice from the CD1 strain were utilized to match our study examining THC’s effects on the brain lipidome ([Leishman et al., 2018]). Mice were given a single i.p. injection of either 3 mg/kg CP or 1:1:18 cremophor:ethanol:saline vehicle (please refer to the section “3 mg/kg CP Is Relevant for Synthetic Cannabinoid Abuse and Has Stronger Effects on the Female Mouse Brain Lipidome During Adolescence” for a justification of dose and use of female mice). Three different age groups were given injections: PND 35 and PND 50 adolescents, and adult mice (PND 113). At least eight mice in each age group received CP and at least eight received vehicle. Matching the THC study time course ([Leishman et al., 2018]), mice were sacrificed via rapid decapitation 2 h after injection. Brains were immediately removed and flash-frozen in liquid nitrogen, and then stored at -80°C until dissections were performed. Brains were dissected on an ice-cold dissection plate into the following regions: STR, HIPP, CER, THAL, CTX, HYP, MID, and STEM. These abbreviations for these brain areas will be used exclusively when discussing the results generated by these specific dissections. Each dissected area was immediately placed in liquid nitrogen and then stored at -80°C until used for lipid extraction.
Tissue extracts were performed as previously described ([Bradshaw et al., 2006]; [Stuart et al., 2013]; [Raboune et al., 2014]; [Leishman et al., 2016a],[b], [2017], [2018]). First, samples were shock frozen in liquid nitrogen, weighed, and transferred to a centrifuge tube. The mass of the largest sample was multiplied by 50 to determine how many milliliters of HPLC-grade methanol (Fisher, Fair Lawn, NJ, United States) to add. Then, samples were spiked with 500 pmol deuterium-labeled NAGly (d8NAGly; Cayman Chemical, Ann Arbor, MI, United States). Samples were placed on ice in darkness for 2 h then individually homogenized and centrifuged at 19,000 × g for 20 min at 20°C. Supernatants were diluted with HPLC water (purified in house) to make a solution of 75% water, 25% supernatant. Lipids were partially purified on C18 solid phase extraction columns (Agilent, Palo Alto, CA, United States). A series of four elutions with 1.5 mL of 60%, 75%, 85%, and 100% methanol were collected ([Stuart et al., 2013]; [Leishman et al., 2016a],[b], [2018]).
As previously described ([Bradshaw et al., 2006]; [Tan et al., 2006]; [Smoum et al., 2010]; [Stuart et al., 2013]; [Tortoriello et al., 2013]; [Raboune et al., 2014]; [Leishman et al., 2016a],[b], [2017], [2018]), samples were analyzed using an Applied Biosystems API 3000 triple quadrupole mass spectrometer with electrospray ionization (Foster City, CA, United States). Using an Agilent XDB-C18 reversed phase analytical column and optimized mobile phase gradients, 20 μL from each elution were chromatographed. Two Shimadzu 10ADvp pumps (Columbia, MD, United States) provided the pressure for gradient elution. Mobile phase A: 20% methanol, 80% water (v/v) and 1 mM ammonium acetate (Sigma, St. Louis, MO, United States). Mobile phase B: 100% methanol, 1 mM ammonium acetate. Every method run began with 0% mobile phase B, reached 100% mobile phase B flowing at 0.2 mL/min, and gradually returned to 0% mobile phase B.
This screening library will be referred to as the lipidome when discussing data from this study. HPLC/MS/MS data were analyzed using Analyst software (Applied Biosystems) ([Bradshaw et al., 2006]; [Tan et al., 2006]; [Stuart et al., 2013]; [Tortoriello et al., 2013]; [Raboune et al., 2014]; [Leishman et al., 2016a],[b], [2017], [2018]). Chromatograms (Supplementary Figure 3) were generated by determining the retention time of analytes from the analytical column with a [M-1] or [M+1] parent peak and a fragmentation peak corresponding to the programmed values. […]

[1] = WT adult female mice, 3mg/kg CP 55,940

## CCCCCCC(C)(C)c1ccc([C@@H]2C[C@H](O)CC[C@H]2CCCO)c(O)c1 [CP 55,940]
[1]
  N-docosahexaenoyl ethanolamine level, Mean: 2.99E-11
  N-docosahexaenoyl glycine level, Mean: 1.3E-13
  N-docosahexaenoyl phenylalanine level, Mean: 4.66E-14
  N-linoleoyl GABA level, Mean: 7.91E-12
  N-linoleoyl alanine level, Mean: 5.44E-13
  N-linoleoyl ethanolamine level, Mean: 1.72E-11
  N-linoleoyl glycine level, Mean: 9.08E-14
  N-linoleoyl serine level, Mean: 4.53E-11
  N-oleoyl GABA level, Mean: 1.73E-11
  N-oleoyl alanine level, Mean: 2.34E-12
  N-oleoyl ethanolamine level, Mean: 1.6E-10
  N-oleoyl glycine level, Mean: 4.19E-13
  N-oleoyl leucine level, Mean: 7.81E-13
  N-oleoyl methionine level, Mean: 5.74E-13
  N-oleoyl phenylalanine level, Mean: 4.73E-13
  N-oleoyl serine level, Mean: 2E-10
  N-palmitoyl GABA level, Mean: 2.74E-11
  N-palmitoyl alanine level, Mean: 2.22E-12
  N-palmitoyl ethanolamine level, Mean: 6.49E-11
  N-palmitoyl glycine level, Mean: 2.5E-12
  N-palmitoyl leucine level, Mean: 2.46E-12
  N-palmitoyl methionine level, Mean: 3.82E-12
  N-palmitoyl phenylalanine level, Mean: 4.13E-13
  N-palmitoyl serine level, Mean: 1.13E-11
  N-palmitoyl tyrosine level, Mean: 3.42E-13
  N-palmitoyl valine level, Mean: 1.9E-13
  N-stearoyl GABA level, Mean: 1.7E-11
  N-stearoyl alanine level, Mean: 2.97E-12
  N-stearoyl ethanolamine level, Mean: 1.06E-11
  N-stearoyl glycine level, Mean: 1.83E-12
  N-stearoyl leucine level, Mean: 1.05E-12
  N-stearoyl methionine level, Mean: 4.98E-13
  N-stearoyl phenylalanine level, Mean: 2.37E-13
  N-stearoyl serine level, Mean: 2.33E-11
  N-stearoyl tyrosine level, Mean: 8.82E-14
  Oleic acid level, Mean: 4.55E-10
  PGE2 level, Mean: 1.93E-10
  PhosphoLEA level, Mean: 3.87E-12
adult, 3 mg/kg CP 55,940
  2-arachidonoyl glycerol: Direction (relative to Veh): ↓
  2-arachidonoyl glycerol: Magnitude (x Veh level): 0.81 x Veh level
  2-linoleoyl glycerol: Direction (relative to Veh): ↓
  2-linoleoyl glycerol: Magnitude (x Veh level): 0.77 x Veh level
  6-ketoPGF1α: Direction (relative to Veh): ↑
  6-ketoPGF1α: Magnitude (x Veh level): 1.23 x Veh level
  Arachidonic acid: Direction (relative to Veh): ↓
  Arachidonic acid: Magnitude (x Veh level): 0.83 x Veh level
  N-arachidonoyl GABA: Direction (relative to Veh): ↓
  N-arachidonoyl GABA: Magnitude (x Veh level): 0.80 x Veh level
  N-arachidonoyl alanine: Direction (relative to Veh): ↓
  N-arachidonoyl alanine: Magnitude (x Veh level): 0.63 x Veh level
  N-arachidonoyl ethanolamine: Direction (relative to Veh): ↓
  N-arachidonoyl ethanolamine: Magnitude (x Veh level): 0.81 x Veh level
  N-arachidonoyl glycine: Direction (relative to Veh): ↓
  N-arachidonoyl glycine: Magnitude (x Veh level): 0.63 x Veh level
  N-oleoyl ethanolamine: Direction (relative to Veh): ↓
  N-oleoyl ethanolamine: Magnitude (x Veh level): 0.79 x Veh level
  N-palmitoyl GABA: Direction (relative to Veh): ↑
  N-palmitoyl GABA: Magnitude (x Veh level): 1.13 x Veh level
  N-palmitoyl ethanolamine: Direction (relative to Veh): ↓
  N-palmitoyl ethanolamine: Magnitude (x Veh level): 0.86 x Veh level
  N-palmitoyl leucine: Direction (relative to Veh): ↑
  N-palmitoyl leucine: Magnitude (x Veh level): 1.36 x Veh level
  N-palmitoyl methionine: Direction (relative to Veh): ↑
  N-palmitoyl methionine: Magnitude (x Veh level): 1.25 x Veh level
  N-palmitoyl valine: Direction (relative to Veh): ↑
  N-palmitoyl valine: Magnitude (x Veh level): 1.95 x Veh level
  Oleic acid: Direction (relative to Veh): ↓
  Oleic acid: Magnitude (x Veh level): 0.78 x Veh level
PND 35, 3 mg/kg CP 55,940
  2-linoleoyl glycerol Direction (relative to Veh): ↓
  2-linoleoyl glycerol Magnitude (x Veh level): 0.79 x Veh level
  6-ketoPGF1α Direction (relative to Veh): ↓
  6-ketoPGF1α Magnitude (x Veh level): 0.77 x Veh level
  N-arachidonoyl GABA Direction (relative to Veh): ↓
  N-arachidonoyl GABA Magnitude (x Veh level): 0.72 x Veh level
  N-arachidonoyl alanine Magnitude (x Veh level): 0.82 x Veh level
  N-arachidonoyl alanine, Direction (relative to Veh): ↓
  N-arachidonoyl ethanolamine, Direction (relative to Veh): ↑
  N-arachidonoyl ethanolamine, Magnitude (x Veh level): 1.21 x Veh level
  N-arachidonoyl glycine Direction (relative to Veh): ↓
  N-arachidonoyl glycine Magnitude (x Veh level): 0.86 x Veh level
  N-arachidonoyl phenylalanine, Direction (relative to Veh): ↑
  N-arachidonoyl phenylalanine, Magnitude (x Veh level): 1.20 x Veh level
  N-arachidonoyl serine Direction (relative to Veh): ↓
  N-arachidonoyl serine Magnitude (x Veh level): 0.81 x Veh level
  N-arachidonoyl taurine Direction (relative to Veh): ↓
  N-arachidonoyl taurine Magnitude (x Veh level): 0.87 x Veh level
  N-docosahexaenoyl GABA Direction (relative to Veh): ↓
  N-docosahexaenoyl GABA Magnitude (x Veh level): 0.71 x Veh level
  N-docosahexaenoyl alanine Direction (relative to Veh): ↓
  N-docosahexaenoyl alanine Magnitude (x Veh level): 0.69 x Veh level
  N-docosahexaenoyl glycine Direction (relative to Veh): ↓
  N-docosahexaenoyl glycine Magnitude (x Veh level): 0.85 x Veh level
  N-docosahexaenoyl leucine Direction (relative to Veh): ↑
  N-docosahexaenoyl leucine Magnitude (x Veh level): 1.78 x Veh level
  N-docosahexaenoyl phenylalanine Direction (relative to Veh): ↑
  N-docosahexaenoyl phenylalanine Magnitude (x Veh level): 1.25 x Veh level
  N-linoleoyl ethanolamine, Direction (relative to Veh): ↑
  N-linoleoyl ethanolamine, Magnitude (x Veh level): 1.29 x Veh level
  N-oleoyl GABA Magnitude (x Veh level): 0.81 x Veh level
  N-oleoyl GABA direction (relative to Veh): ↓
  N-oleoyl alanine Magnitude (x Veh level): 0.84 x Veh level
  N-oleoyl alanine direction (relative to Veh): ↓
